Here are results for four compounds from patent US20050180944A1, “In situ remediation of waste in farm animal bedding substrates” (priority 2004, published 2005).

Assay [1] deals with pig waste. The assay can be described thus: Seven-day test: bioremediation/degradation of pig waste suspended in water with fatty acid additives. Particulars: 0.1 g fatty acid (0.5 g coated nutrient) per bottle of aqueous pig waste mixture, 2000 ppm ammonium hydroxide, 25 degrees Celsius. The method, then:
A test was performed to determine the relative performance of various additives on the bioremediation or degradation of wastes suspended in water. Measurements of the “biological oxygen demand” (BOD) and “total suspended solids” (TSS) were taken as representative of the progress of the microbial growth and effectiveness of the degradation brought about by the microbes. Approximately five pounds of pig waste was collected from a feedlot and diluted in five gallons of deionized water. The mixture was allowed to sit for 24 hours to insure that the waste formed a uniform mixture. Five hundred milliliters (500 ml) of the aqueous waste mixture was added to each of 13 two-liter glass bottles that were closed with Teflon lined caps. Ammonium hydroxide was added to each container for a final concentration of 2000 ppm. The samples were diluted with water 2:1 and filtered to remove large particulate matter. Various fatty acids and combinations of fatty acids were added to each bottle and the bottles were placed in a tumbler at 25 degrees Celsius. Seven of the bottles were used in a seven-day test and six of the bottles were used in a twelve-day test. Standard EPA test methods were used for all test measurements.

The subject of assay [2] is pig waste. Kind of assay: BOD and TSS of pig waste samples treated with fatty acids and combinations (test duration not given). Details: BOD reduction / TSS reduction: concentration or dose not given beside the values. Particulars: treated pig waste sample. The method, then: A test was performed to determine the relative performance of various additives on the bioremediation or degradation of wastes suspended in water. Measurements of the “biological oxygen demand” (BOD) and “total suspended solids” (TSS) were taken as representative of the progress of the microbial growth and effectiveness of the degradation brought about by the microbes.
Approximately five pounds of pig waste was collected from a feedlot and diluted in five gallons of deionized water. The mixture was allowed to sit for 24 hours to insure that the waste formed a uniform mixture. Five hundred milliliters (500 ml) of the aqueous waste mixture was added to each of 13 two-liter glass bottles that were closed with Teflon lined caps. Ammonium hydroxide was added to each container for a final concentration of 2000 ppm.
The samples were diluted with water 2:1 and filtered to remove large particulate matter. Various fatty acids and combinations of fatty acids were added to each bottle and the bottles were placed in a tumbler at 25 degrees Celsius. Seven of the bottles were used in a seven-day test and six of the bottles were used in a twelve-day test. Standard EPA test methods were used for all test measurements.
BOD (biological oxygen demand) and TSS (total suspended solids) were measured on each sample.

As to `CCCCC/C=C\C/C=C\CCCCCCCC(=O)O` [Linoleic, linoleic acid], in the assay on pig waste [1], the “TSS (total suspended solids)” value is listed as 15,780 ppm. Further, in the assay with pig waste [2], the BOD levels was found to be 6102 ppm, the BOD reduction is reported as 12.2%, the TSS levels was 439 ppm and the TSS reduction is given as 13.3%.

Turning to `CCCCCCCCCCCCCCCCCC(=O)O` [Strearic, stearic acid], the “TSS (total suspended solids)” value in the assay with pig waste [1] is listed as 16,080 ppm. Besides, in the assay with pig waste [2], the BOD levels worked out at 6660 ppm, the BOD reduction is recorded as 9.5%, the TSS levels was 455 ppm and the TSS reduction was found to be 10.0%.

As to `CCCCCCCC/C=C\CCCCCCCC(=O)O` [Oleic, oleic acid], the “TSS (total suspended solids)” value with pig waste [1] was 15,600 ppm. In addition, in the assay with pig waste [2], the BOD levels is 6050 ppm, the BOD reduction is listed as 13.0%, the TSS levels was 407 ppm and the TSS reduction turned out to be 19.6%.

For the compound `CCCCCCCCCCCC(=O)O` [Lauric], the “TSS (total suspended solids)” value in the assay on pig waste [1] is on record as 16,040 ppm.
